Experimental data as given in patent publication US20260226060A1, “SALTS AND CRYSTALLINE FORMS OF COMPOUND A, METHODS OF PREPARATION, AND USES THEREOF” (SHENZHEN NEWDEL BIOTECH CO., LTD., priority 2023, published 2026).
≈ marks a conversion by molar mass, not a printed value.

Tests used:
Format in all cases: physicochemical
[1] = Short-term physical stability of anhydrous crystal forms (40° C./75% RH, open, 1 day; XRPD)
Source text: In addition to the mesylate crystalline form I, the other anhydrous crystalline forms were stable under high humidity conditions.

[2] = Dynamic vapor sorption (DVS) hygroscopicity
Description: The water vapor sorption/desorption data of the samples were collected on a dynamic vapor sorption instrument (proUmid GmbH & Co. KG, Germany). Approximately 50-70 mg of sample was placed in a sample pan previously tared and the weight of the sample was measured accurately.

[3] = Rough solubility of free base starting material, visually evaluated by solvent addition
Source text: The rough solubility test of free base of compound A was visually evaluated by solvent addition, and the results were summarized in Table 1.

[4] = Solubility analysis in biological solvents (SGF, FaSSIF, FeSSIF) and water, with pH and XRPD of residual solid; details: for Solubility: 37° C., target 5 mg/mL
Description: (§1) HPLC analysis was performed by using an Agilent HPLC 1260 series instrument and the HPLC methods used for solubility and stability determinations were shown in Tables 33 and 34, respectively.

[5] = Solid state stability at 60° C. (closed) and 40° C./75% RH (open), XRPD and HPLC purity
Description: (closed) and 40° C./75 RH (open) for 14 days, XRPD analysis and purity analysis were performed at various points of time, and solid-state stability was evaluated.
as §1

Structure (SMILES): Cc1c(C#Cc2cnc3ccc(N4CCC(O)CC4)nn23)cccc1C(=O)Nc1cc(Cl)cc(C(F)(F)F)c1 [Besylate crystalline form I]
- XPRD Results after short-term physical stability [1]: unchanged

Structure (SMILES): Cc1c(C#Cc2cnc3ccc(N4CCC(O)CC4)nn23)cccc1C(=O)Nc1cc(Cl)cc(C(F)(F)F)c1 [Free base crystalline form I]
- crystalline form after DVS analysis (XRPD) [2]: remained unchanged
- hygroscopicity (DVS) [2]: slightly hygroscopic
- DVS The weight gains by vapor sorption % ([2]; 80% RH): 0.8%
- DVS The weight gains by vapor sorption % ([2]; 90% RH): 0.9%
- DVS The weight gains by vapor sorption % ([2]; 90% RH, listed as free base crystalline form I): ~0.9%
- Solubility ([3]; 2-methyltetrahydrofuran, organic solvent or mixture, thermodynamic from solid, 2-methyltetrahydrofuran, read-out: Solubility): > 50000 µg/mL
- Solubility ([3]; 2-methyltetrahydrofuran, listed as starting material): 50000 to 100000 µg/mL
- Solubility ([3]; acetone, organic solvent or mixture, thermodynamic from solid, acetone, read-out: Solubility): 20000 to 50000 µg/mL (≈ 36.1 to 90.3 mM)
- Solubility ([3]; acetonitrile, organic solvent or mixture, thermodynamic from solid, acetonitrile, read-out: Solubility): 1000 to 5000 µg/mL (≈ 1.81 to 9.03 mM)
- Solubility ([3]; acetonitrile/water, 19/1 (v/v), organic solvent or mixture, thermodynamic from solid, acetonitrile/water, 19/1 (v/v), read-out: Solubility): 3000 to 5000 µg/mL (≈ 5.42 to 9.03 mM)
- Solubility ([3]; butanone, organic solvent or mixture, thermodynamic from solid, butanone, read-out: Solubility): > 50000 µg/mL
- Solubility ([3]; butanone, listed as starting material): 50000 to 100000 µg/mL
- Solubility ([3]; dichloromethane, organic solvent or mixture, thermodynamic from solid, dichloromethane, read-out: Solubility): 3000 to 5000 µg/mL (≈ 5.42 to 9.03 mM)
- Solubility ([3]; ethanol, organic solvent or mixture, thermodynamic from solid, ethanol, read-out: Solubility): 5000 to 20000 µg/mL (≈ 9.03 to 36.1 mM)
- Solubility ([3]; ethyl acetate, organic solvent or mixture, thermodynamic from solid, ethyl acetate, read-out: Solubility): 5000 to 20000 µg/mL (≈ 9.03 to 36.1 mM)
- Solubility ([3]; isopropanol, organic solvent or mixture, thermodynamic from solid, isopropanol, read-out: Solubility): 20000 to 50000 µg/mL (≈ 36.1 to 90.3 mM)
- Solubility ([3]; isopropyl acetate, organic solvent or mixture, thermodynamic from solid, isopropyl acetate, read-out: Solubility): 5000 to 20000 µg/mL (≈ 9.03 to 36.1 mM)
- Solubility ([3]; methanol, organic solvent or mixture, thermodynamic from solid, methanol, read-out: Solubility): 3000 to 5000 µg/mL (≈ 5.42 to 9.03 mM)
- Solubility ([3]; methyl isobutyl ketone, organic solvent or mixture, thermodynamic from solid, methyl isobutyl ketone, read-out: Solubility): 5000 to 20000 µg/mL (≈ 9.03 to 36.1 mM)
- Solubility ([3]; methyl tert-butyl ether, organic solvent or mixture, thermodynamic from solid, methyl tert-butyl ether, read-out: Solubility): 2000 to 5000 µg/mL (≈ 3.61 to 9.03 mM)
- Solubility ([3]; n-heptane, organic solvent or mixture, thermodynamic from solid, n-heptane, read-out: Solubility): < 1000 µg/mL
- Solubility ([3]; n-heptane, listed as starting material): <1000 µg/mL
- Solubility ([3]; tetrahydrofuran, organic solvent or mixture, thermodynamic from solid, tetrahydrofuran, read-out: Solubility): > 50000 µg/mL
- Solubility ([3]; tetrahydrofuran, listed as starting material): >100000 µg/mL
- Solubility ([3]; toluene, organic solvent or mixture, thermodynamic from solid, toluene, read-out: Solubility): < 1000 µg/mL
- Solubility ([3]; toluene, listed as starting material): <1000 µg/mL
- Solubility ([3]; water, thermodynamic from solid, water, read-out: Solubility): < 1000 µg/mL
- Solubility ([3]; water, listed as starting material): <1000 µg/mL
- pH in solubility analysis ([4]; FaSSIF (medium pH 6.5), 0.5 h): 6.4
- pH in solubility analysis ([4]; FaSSIF (medium pH 6.5), 2 h): 6.3
- pH in solubility analysis ([4]; FaSSIF (medium pH 6.5), 24 h): 6.4
- XRPD of residual solid in solubility analysis ([4]; FaSSIF, 0.5 h): unchanged
- Solubility ([4]; FaSSIF, 0.5 h): 14 µg/mL (≈ 0.0253 mM)
- Solubility ([4]; FaSSIF, 0.5 h, listed as free base crystalline form I): 14 µg/mL (≈ 0.0253 mM)
- Solubility ([4]; FaSSIF, 2 h): 13 µg/mL (≈ 0.0235 mM)
- Solubility ([4]; FaSSIF, 2 h, listed as free base crystalline form I): 13 µg/mL (≈ 0.0235 mM)
- XRPD of residual solid in solubility analysis ([4]; FaSSIF, 24 h): unchanged
- Solubility ([4]; FaSSIF, 24 h): 11 µg/mL (≈ 0.0199 mM)
- pH in solubility analysis ([4]; FeSSIF (medium pH 5.0), 0.5 h): 5.0
- pH in solubility analysis ([4]; FeSSIF (medium pH 5.0), 2 h): 5.0
- pH in solubility analysis ([4]; FeSSIF (medium pH 5.0), 24 h): 5.1
- XRPD of residual solid in solubility analysis ([4]; FeSSIF, 0.5 h): unchanged
- Solubility ([4]; FeSSIF, 0.5 h): 181 µg/mL (≈ 0.327 mM)
- Solubility ([4]; FeSSIF, 0.5 h, listed as free base crystalline form I): 181 µg/mL (≈ 0.327 mM)
- Solubility ([4]; FeSSIF, 2 h): 221 µg/mL (≈ 0.399 mM)
- Solubility ([4]; FeSSIF, 2 h, listed as free base crystalline form I): 221 µg/mL (≈ 0.399 mM)
- XRPD of residual solid in solubility analysis ([4]; FeSSIF, 24 h): unchanged
- Solubility ([4]; FeSSIF, 24 h): 418 µg/mL (≈ 0.755 mM)
- pH in solubility analysis ([4]; SGF (medium pH 1.2), 0.5 h): 1.3
- pH in solubility analysis ([4]; SGF (medium pH 1.2), 2 h): 1.4
- pH in solubility analysis ([4]; SGF (medium pH 1.2), 24 h): 1.2
- XRPD of residual solid in solubility analysis ([4]; SGF, 0.5 h): unchanged
- Solubility ([4]; SGF, 0.5 h): <LOD
- Solubility ([4]; SGF, 0.5 h, listed as free base crystalline form I): <LOD/<LOD/
- Solubility ([4]; SGF, 2 h): <LOD
- Solubility ([4]; SGF, 2 h, listed as free base crystalline form I): <LOD/<LOD/
- Solubility ([4]; SGF, 24 h): <LOD
- XRPD of residual solid in solubility analysis ([4]; SGF, after 2 h): amorphous
- Solid form of residual solids in solubility analysis ([4]; summary over water, SGF, FaSSIF, FeSSIF): remained unchanged in water, FaSSIF and FeSSIF
- pH in solubility analysis ([4]; water (medium pH 6.6), 0.5 h): 6.6
- pH in solubility analysis ([4]; water (medium pH 6.6), 2 h): 6.5
- pH in solubility analysis ([4]; water (medium pH 6.6), 24 h): 6.4
- Solubility ([4]; water, 0.5 h): <LOD/<LOD/
- Solubility ([4]; water, 2 h): <LOD/<LOD/
- Solubility ([4]; water, 24 h): <LOD
- Purity in stability evaluation ([5]; 0 d): 98.63 Area %
- Solid state stability-14 days ([5]; 60° C./Closed and 40° C./75% RH (Open), 14 days): physically and chemically stable
- Purity in stability evaluation ([5]; 7 d-40° C./75% RH): 98.60 Area %
- XRPD in stability evaluation ([5]; 7 d-40° C./75% RH): unchanged
- Purity in stability evaluation ([5]; 7 d-60° C./capped): 98.61 Area %
- XRPD in stability evaluation ([5]; 7 d-60° C./capped): unchanged
- Purity in stability evaluation ([5]; 14 d-40° C./75% RH): 98.61 Area %
- XRPD in stability evaluation ([5]; 14 d-40° C./75% RH): unchanged
- Purity in stability evaluation ([5]; 14 d-60° C./capped): 98.70 Area %
- XRPD in stability evaluation ([5]; 14 d-60° C./capped): unchanged

Structure (SMILES): Cc1c(C#Cc2cnc3ccc(N4CCC(O)CC4)nn23)cccc1C(=O)Nc1cc(Cl)cc(C(F)(F)F)c1 [L-camphor sulfonate crystalline form II]
- hygroscopicity (DVS) [2]: slightly hygroscopic
- DVS The weight gains by vapor sorption % ([2]; 80% RH): 0.8%
- DVS The weight gains by vapor sorption % ([2]; 90% RH): 1.2%
- XPRD Results after short-term physical stability [1]: unchanged

Structure (SMILES): Cc1c(C#Cc2cnc3ccc(N4CCC(O)CC4)nn23)cccc1C(=O)Nc1cc(Cl)cc(C(F)(F)F)c1 [Mesylate crystalline form I]
- XPRD Results after short-term physical stability [1]: new crystalline form
- stability of crystalline form under high humidity conditions [1]: unstable

Structure (SMILES): Cc1c(C#Cc2cnc3ccc(N4CCC(O)CC4)nn23)cccc1C(=O)Nc1cc(Cl)cc(C(F)(F)F)c1 [Oxalate crystalline form I]
- XPRD Results after short-term physical stability [1]: unchanged
